Values of other authors in patent US11998629B2, “Method for dyeing keratinous material, comprising the use of an organosilicon compound, an effect pigment and a film-forming polymer” (Henkel AG & Co. KGaA, priority 2019, dated 2024).

Conditions: 25° C.

CCN(Cc1cccc(S(=O)(=O)[O-])c1)c1ccc(C(=C2C=CC(=[N+](CC)Cc3cccc(S(=O)(=O)[O-])c3)C=C2)c2ccccc2S(=O)(=O)[O-])cc1.[Na+].[Na+] [Acid Blue 9]
water solubility: greater than 20 % by weight

O=S(=O)([O-])c1ccc(N=Nc2c(O)ccc3ccccc23)cc1.[Na+] [Acid Orange 7, sodium salt of 4-[(2-hydroxy-1-naphthyl)azo]benzenesulfonate]
solubility in water: more than 7 g/L

Nc1cc(S(=O)(=O)[O-])cc2cc(S(=O)(=O)[O-])c(N=Nc3ccccc3)c(O)c12.[Na+].[Na+] [Acid Red 33, disodium salt of 5-amino-4-hydroxy-3-(phenylazo)-naphthalene-2,7-disulphonate]
solubility in water: 2.5 mg/mL

O=C([O-])c1c(Cl)c(Cl)c(Cl)c(Cl)c1-c1c2c(Br)cc(=O)c(Br)c-2oc2c(Br)c(O)cc(Br)c12.O=C([O-])c1c(Cl)c(Cl)c(Cl)c(Cl)c1-c1c2c(Br)cc(=O)c(Br)c-2oc2c(Br)c(O)cc(Br)c12.[Na+].[Na+] [Acid Red 92, disodium salt of 3,4,5,6-tetrachloro-2-(1,4,5,8-tetrabromo-6-hydroxy-3-oxoxanthen-9-yl)benzoic acid]
solubility in water: greater than 10 g/L

O=C([O-])C1=NN(c2ccc(S(=O)(=O)[O-])cc2)C(=O)C1N=Nc1ccc(S(=O)(=O)[O-])cc1.[Na+].[Na+].[Na+] (stereo not drawn) [Acid Yellow 23, trisodium salt of 4,5-dihydro-5-oxo-1-(4-sulfophenyl)-4-((4-sulfophenyl)azo)-1H-pyrazole-3-carboxylic acid]
solubility in water (in words): readily soluble

mixture of the sodium salts of mono- and disulfonic acids of 2-(2-quinolyl)-1H-indene-1,3(2H)-dione [Acid Yellow 3]
solubility in water: 20 mg/mL
